Where “and” joins values, the source holds several entries; their conditions need not be identical. Equal values may be shown once. Where a name gives a salt, the structure may show the parent alone. Marks after values point to notes of the source that are not given here.
Columns and labels:
[1] = system: HepG2 cells; assay: HepG2 cell viability, MTT method (BJIKT, sorafenib); format: cell-based; details: Homo sapiens
[2] = sorafenib 100 mg/kg single
[3] = system: HepG2 cells; assay: HepG2 cell viability, MTT method (YMJHT, sorafenib); format: cell-based; details: Homo sapiens
[4] = mouse, in vivo
[5] = in vivo; details: male, SD, rat, plasma
[6] = in vivo; details: male, SD, rat, plasma; for Cmax / MRT inf / Tmax / half-life: oral; for Cmax: Blood Cmax of tamoxifen; for MRT inf: Blood MRTinf of tamoxifen; for Tmax: Blood Tmax of tamoxifen; for half-life: Blood t1/2 of tamoxifen; for AUC(0-inf) / AUC(0-t): po, 50 mg/kg; for AUC(0-inf): Blood tamoxifen AUC0-inf; for AUC(0-t): Blood tamoxifen AUC0-t
[7] = system: MCF-7 cell xenograft; assay: MCF-7 xenograft nude mice, 35 days oral: tamoxifen 20 mg/kg single, JEKHT 500 mg/kg single, or co-administered within 5 minutes; tumor, immune and cachexia readouts; format: in vivo, Balb/c Slc nu/nu mice
Source text: In Example 3, as laboratory animals, Balb/c Slc nu/nu mice (5-week-old females, SLC, Shizuoka, Japan) were used. Seventy three nude mice were purchased, and sixty seven xenografted mice having a tumor volume of 50 mm^3 or more 14 days after MCF-7 cells were xenografted into subcutaneous parts of a right hip of each mouse were selected, and divided into groups of seven mice each.
The xenografted MCF-7 cells were maintained by sub-culturing the MCF-7 cells (American Type Culture Collection Center, VA, USA) using 10% fetal bovine serum (FBS)-added RPMI 1640 (Gibco, Grand Island, N.Y., USA) media in a 5% C02 incubator at 37° C., and a solid tumor mass was formed by preparing a tumor cell suspension to have a cell concentration of 1.0×10^8 cell/ml, and grafting 0.2 ml (2×10^7 cell/mouse) of the MCF-7 tumor cell suspension on a subcutaneous part of a right hip of each mouse.

[8] = in vivo; details: male, SD, rat, plasma, po, 50 mg/kg
[9] = in vivo; details: male, SD, rat, plasma, po, 50 mg/kg; for AUC(0-inf): AUC0-inf of gefitinib; for AUC(0-t): AUC0-t of gefitinib; for Cmax: Cmax of gefitinib; for MRT inf: MRTinf of gefitinib; for half-life: t1/2 of gefitinib
[10] = system: NCI-H520 cell xenograft; assay: NCI-H520 xenograft nude mice, 35 days oral: gefitinib 120 mg/kg single, bojungikgi-tang 400 mg/kg single, or co-administered within 5 minutes; format: in vivo, Balb/c Slc nu/nu mice; details: co-adm BJIKT 100/200/400 mg/kg in order
Experimental: A total of 73 nude mice were purchased, and NCI-H520 cells were xenografted into a subcutaneous region of a right hip each of 67 mice. 14 days after the grafting, the xenografted mice having a tumor volume of 100 mm^3 or more were selected, and divided into seven groups of 6 mice each to be used in the experiment as listed in Table 16. Separately, 6 mice were prepared as the vehicle control.
Then, the NCI-H520 cells were cultured to a density of 1.0×10^8 cells/ml to prepare a tumor cell suspension, and 0.2 mL (2×10^7 cells/head) of the NCI-H520 tumor cell suspension was injected into subcutaneous regions of right back buttocks of the mice to form a solid tumor mass.

[11] = co-adm JEKHT 125/250/500 mg/kg in order
[12] = co-adm JEKHT dose given in table
[13] = submandibular lymph node, JEKHT dose = table row
[14] = tumor mass, JEKHT dose = table row

SMILES: CNC(=O)c1cc(Oc2ccc(NC(=O)Nc3ccc(Cl)c(C(F)(F)F)c3)cc2)ccn1 [Sorafenib, sorafenib]
- IC50 [1]: 2.8 µM and 1.3 µg/mL
- Deaths, Days of treatment period (Day 0 to 27) [2]: 0
- Deaths, Termination date (28th day of administration) [2]: 0
- IC50 [3]: 2.81 µM and 1.31 µg/mL
- Any abnormal signs ([4]; male, ICR, 28 days): 0/7 (0%)
- Normal appearance ([4]; male, ICR, 28 days): 7/7 (100%)
- Adrenal G L absolute weight [4]: 0.003 ± 0.002
- BASO (%) [4]: 0.30 ± 0.20%
- Body weight gain, Day 0~Day 14 [4]: 6.63 ± 1.62
- Body weight gain, Day 14~Day 27 [4]: 2.11 ± 1.51
- Brain absolute weight [4]: 0.471 ± 0.022
- Epididymis L absolute weight [4]: 0.036 ± 0.004^a
- HCT [4]: 41.89 ± 2.13%
- HGB [4]: 18.54 ± 0.88 g/dL
- Heart absolute weight [4]: 0.155 ± 0.011
- Kidney L absolute weight [4]: 0.285 ± 0.042
- LN L absolute weight [4]: 0.002 ± 0.001^a
- LYM (%) [4]: 70.74 ± 6.08^c %
- Liver absolute weight [4]: 1.234 ± 0.149
- Lung absolute weight [4]: 0.172 ±0 .010
- MCH [4]: 20.89 ± 0.88 pg
- MCV [4]: 47.13 ± 2.47 fL
- MONO (%) [4]: 5.26 ± 1.55%
- NEU (%) [4]: 17.36 ± 5.16^c %
- PLT [4]: 804.86 ± 99.24 K/μL
- Pancreas S absolute weight [4]: 0.156 ± 0.022
- RBC [4]: 8.89 ± 0.39 M/μL
- RET [4]: 0.51 ± 0.33 ea/1000
- Spleen absolute weight [4]: 0.063 ± 0.007^e
- Testis L absolute weight [4]: 0.097 ± 0.006^a
- Thymus absolute weight [4]: 0.027 ± 0.004^a
- WBC [4]: 1.81 ± 0.53^a K/μL

SMILES: CC/C(=C(\c1ccccc1)c1ccc(OCCN(C)C)cc1)c1ccccc1 [Tamoxifen, Tamoxifen citrate]
- AUC(0-inf) ([5]; oral): 6860 ± 2920 ng·h/mL
- AUC(0-t) ([5]; oral): 5270 ± 1790 ng·h/mL
- Cmax ([5]; oral): 364 ± 122 ng/mL
- MRT inf ([5]; oral): 14.9 ± 6.29 h
- Tmax ([5]; oral): 5.6 ± 2.19 h
- half-life ([5]; po, 50 mg/kg): 9.56 ± 4.16 h
- Cmax ([6]; 8th administration): 770 ± 220 ng/mL
- Cmax ([6]; first tamoxifen administration): 280 ± 160 ng/mL
- MRT inf ([6]; 8th administration): 28.5 ± 8.53 h
- MRT inf ([6]; first tamoxifen administration): 18.1 ± 5.71 h
- Tmax ([6]; 8th administration): 3.4 ± 0.89 h
- Tmax ([6]; first tamoxifen administration): 3.6 h
- half-life ([6]; 8th administration): 19.6 ± 5.84 h
- half-life ([6]; first tamoxifen administration): 13.1 ± 5.77 h
- AUC(0-inf) ([6]; 8th administration): 21500 ± 3040 ng·h/mL
- AUC(0-inf) ([6]; first tamoxifen administration): 4860 ± 2870 ng·h/mL
- AUC(0-t) ([6]; 8th administration): 12400 ± 2660 ng·h/mL
- AUC(0-t) ([6]; first tamoxifen administration): 3230 ± 1790 ng·h/mL
- Periovarian fat pad total thickness ([7]; JEKHT dose = table row): 0.28 ± 0.10^a mm/central regions
- Spleen total thickness ([7]; JEKHT dose = table row): 1.15 ± 0.13^a mm/central regions
- Spleen white pulp diameters ([7]; JEKHT dose = table row): 298.11 ± 61.88^a μm/white pulp
- Spleen white pulp numbers ([7]; JEKHT dose = table row): 4.14 ± 1.07^a /mm^2
- Submandibular lymph node total thickness ([7]; JEKHT dose = table row): 487.38 ± 83.96^a μm/central regions
- Blood IFN-γ content, change vs tumor-bearing control [7, 11]: −14.77%
- Blood IL-6 content, change vs tumor-bearing control [7, 11]: 21.68%
- Body weight gain, change vs tumor-bearing control [7, 11]: −11162.72%
- Peritoneal NK cell activity, change vs tumor-bearing control [7, 11]: −26.39%
- Splenic IL-1β content, change vs tumor-bearing control [7, 11]: −10.82%
- Splenic IL-10 content, change vs tumor-bearing control [7, 11]: −33.33%
- Splenic NK cell activity, change vs tumor-bearing control [7, 11]: −12.73%
- Splenic TNF-α content, change vs tumor-bearing control [7, 11]: −23.94%
- Tumor volume variation, change vs tumor-bearing control [7, 11]: −66.73%
- Periovarian fat pad absolute weight [7, 12]: 0.009 ± 0.003 g
- Spleen absolute weight [7, 12]: 0.049 ± 0.009 g
- Submandibular lymph node absolute weight [7, 12]: 0.002 ± 0.001 g
- Tumor mass absolute weight [7, 12]: 0.047 ± 0.010 g
- Tumor volume Changes [B − A] [7, 12]: 125.92 ± 40.49^a mm^3
- Tumor volume, Sacrifice [B] [7, 12]: 184.85 ± 37.69^a mm^3
- White adipocyte diameters ([7]; periovarian fat pad, JEKHT dose = table row): 19.89 ± 5.09^a μm
- Cortex lymphoid cell follicle numbers [7, 13]: 4.14 ± 1.68^gj /mm^2
- Cortex thickness [7, 13]: 255.43 ± 46.37^a μm/lymph node
- TNF-positive cells [7, 13]: 6.57 ± 2.51^gj cells/mm^2 of lymph node
- Apoptotic cell percentages [7, 14]: 27.50 ± 6.62%
- Tumor cell volume [7, 14]: 51.00 ± 10.37 %/mm^2

SMILES: COc1cc2ncnc(Nc3ccc(F)c(Cl)c3)c2cc1OCCCN1CCOCC1 [Gefitinib]
- AUC(0-inf) [8]: 16400 ± 9310 ng·h/mL
- AUC(0-t) [8]: 14600 ± 9450 ng·h/mL
- Cmax [8]: 2160 ± 760 ng/mL
- half-life [8]: 2.59 ± 0.76 h
- AUC(0-inf) ([9]; 9th administration): 16900 ± 4140 ng·h/mL
- AUC(0-inf) ([9]; first gefitinib administration): 20200 ± 4610 ng·h/mL
- AUC(0-t) ([9]; 9th administration): 13500 ± 2780 ng·h/mL
- AUC(0-t) ([9]; first gefitinib administration): 15400 ± 2240 ng·h/mL
- Cmax ([9]; 9th administration): 3120 ± 770 ng/mL
- Cmax ([9]; first gefitinib administration): 3010 ± 480 ng/mL
- MRT inf ([9]; 9th administration): 5.71 ± 1.04 h
- MRT inf ([9]; first gefitinib administration): 5.94 ± 1.36 h
- half-life ([9]; 9th administration): 2.38 ± 0.88 h
- half-life ([9]; first gefitinib administration): 2.82 ± 0.92 h
- Absolute periovarian fat pad weight, change vs TB control [10]: −3.06%
- Absolute spleen weight, change vs TB control [10]: 14.01%
- Absolute submandibular lymph node weight, change vs TB control [10]: 50.00%
- Absolute tumor weight change [10]: −39.14%
- Blood IFN-γ content, change vs TB control [10]: 6.77%
- Blood IL-6 content, change vs TB control [10]: −12.33%
- Body weight gain, change vs tumor-bearing control [10]: 68.23%
- COX-2 immunoreactive cells in tumor tissue, change vs TB control [10]: −42.48%
- Caspase-3 immunoreactive cells in tumor tissue, change vs TB control [10]: 168.67%
- Diameter of splenic white pulp, change vs TB control [10]: 6.51%
- Follicles in submandibular lymph node cortex, change vs TB control [10]: 15.00%
- Mean white adipocyte diameter, change vs TB control [10]: −7.01%
- Number of splenic white pulps, change vs TB control [10]: 22.22%
- PARP immunoreactive cells in tumor tissue, change vs TB control [10]: 125.47%
- Percentage of apoptotic cells in tumor tissue, change vs TB control [10]: 131.78%
- Percentage of tumor cells in tumor tissue, change vs TB control [10]: −36.78%
- Periovarian fat pad thickness, change vs TB control [10]: 2.11%
- Spleen IL-1β content, change vs TB control [10]: 8.36%
- Spleen IL-10 content, change vs TB control [10]: 5.16%
- Spleen TNF-α content, change vs TB control [10]: 6.73%
- Splenic NK cell activity, change vs TB control [10]: 4.93%
- Submandibular lymph node cortex thickness, change vs TB control [10]: 16.19%
- TNF-α immunoreactive cells in tumor tissue, change vs TB control [10]: 12.63%
- Total spleen thickness, change vs TB control [10]: −6.99%
- Total submandibular lymph node thickness, change vs TB control [10]: 7.42%
- Tumor volume variation, change vs tumor-bearing control [10]: −55.42%
- iNOS immunoreactive cells in tumor tissue, change vs TB control [10]: 9.02%

From patent US11065294B2, “Composition including oriental medicine to treat neoplastic disease” (COMPREHENSIVE AND INTEGRATIVE MEDICINE INSTITUTE, priority 2013, dated 2021)
